Test results: PubChem BioAssay AID602458 (NMMLSC, 2012)
≈ marks a conversion by molar mass, not a printed value. Calls of active or inactive are those of the source.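 The calls were made as follows: active = compounds whose saturated solubility in pH 7.4 saline buffer exceeds 10 µg/mL; inactive = the rest.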

System: 1xPBS pH 7.4 kinetic solubility, UV absorbance
Experiment: compound solubility in PBS buffer – biophysical, 1xPBS, pH 7.4, UV absorbance, ADME assay for GPR30 and estrogen receptor ligands, late-stage follow-up (AID 602458)
Conditions: hits give high values

**Q.** Which solubility does the source give for `CC(=O)c1ccc2c(c1)[C@@H]1C=CC[C@@H]1[C@H](c1cc3c(cc1Br)OCO3)N2` here?
**A.** The solubility was 0.14 µg/mL (inactive) (≈ 0.34 µM).

**Q.** Which solubility does the source give for `COc1cc([N+](=O)[O-])cc2c1NC(C1CC=CCC1)C1CC=CC21` (configuration not stated) here?
**A.** Its solubility is 0.28 µg/mL (inactive) (≈ 0.858 µM).
